# Laboratory results published in PMC11434026, “Development and Validation of an LC-MS/MS Assay for the Quantitation of MO-OH-Nap Tropolone in Mouse Plasma: Application to In Vitro and In Vivo Pharmacokinetic Studies” (Molecules, 2024).
# Where two headings read alike, the source gives them in different places.
# Columns and labels:
# [1] = In vitro metabolic stability in rat liver microsomes; type: in vitro ADME; conditions: RLM
# Procedure: Metabolic stability was assessed using mouse, rat, and human liver microsomes (XenoTech, LLC, Lenexa, KS, USA) for phase I metabolism. Briefly, A reaction solution was prepared by mixing […] of PBS (100 mM, pH 7.4), 25 µL of microsomal protein (20 mg/mL), MgCl2 (5 µL; 10 mM), and 50 µL of NADPH (2 mM). The final volume (0.5 mL) was pre-incubated for 10 min in a 37 °C water bath at 60 rpm. An aliquot of MO-OH-Nap (2 µL from 1 µg/mL stock) was spiked into the above solution to initiate the reaction. Aliquots of (50 µL) were collected at time intervals (0, 5, 15, 20, 30, 45, and 60 min) and quenched with 300 µL of ACN, […]. Afterwards, 10 µL of IS stock (1.0 µg/mL) was spiked in each sample then vortexed (5 min) and centrifuged at 10,800 rpm (13,000× g) for 15 min. Samples were vortexed and centrifuged at 10,800 rpm (13,000× g) for 15 min, the supernatant was collected and transferred to an HPLC vial and 10 µL were injected into the LC-MS/MS system. Testosterone and diclofenac were used as positive and negative controls to ensure that liver microsomes and incubation conditions were appropriate for conducting metabolism studies.
# [2] = Plasma pharmacokinetics after single IP dose in CD-1 mice; type: in vivo, mouse; conditions: for Cmax / Vd/F / AUC: 5 mg/kg
# Procedure: Female CD-1 mice,6–8-week-old, with weights ranging from 20 to 25 g were housed in the UNMC animal facility, at a temperature of 23–24 °C, relative humidity of 40–70%, and 12/12-h light/dark cycles. Mice were left to acclimatize to laboratory conditions for 7 days prior to experimental day. MO-OH-Nap was dissolved in a 5% DMSO, 45% w/v hydroxypropyl-β-cyclodextrin solution in PBS (final concentration 0.625 mg/mL MO-OH-Nap). MO-OH-Nap (5 mg/kg) was administered IP. After dosing, approximately 100 µL of blood was collected in Lithium-Heparin-Microvette 300 µL Capillary Blood Collection Tube (SARSTEDT AG& Co., Nümbrecht, Germany) from the maxillary vein at 5, 15, 30 min and 1, 2, 4, 6, 8, 24, and 48 h. Two blood time points were collected from every mouse and the third time point was the terminal time point, for a total of three time points from each mouse (5 mice/group/per time point). Blood was centrifuged at 4000× g at 4 °C for 10 min to extract plasma. The collected plasma samples were stored at −80 °C until analysis. The pharmacokinetics of MO-OH-Nap were determined using non-compartmental (NCA) pharmacokinetics analysis, utilizing Phoenix® WinNonlin software version 8.2 (Certara Corporation, Mountain View, CA, USA). The Cmax and Tmax were determined from visual inspection of the concentration time data. The AUC0_∞ was estimated using the linear trapezoidal method from 0 time point to last time point (0-tlast) and extrapolation from last time point to infinity based on the observed concentration at the last time point divided by the terminal elimination rate constant (k). The t1/2, CL/F and Vd/F were calculated using Equation (10), Equation (11) and Equation (12), respectively. (10) t1/2=0.693/k (11) CL=Dose/AUC0_∞ (12) Vd=Dose /k×AUC0_∞
# [3] = Stability in mouse plasma at storage and use conditions; type: physicochemical
# Procedure: The chemical stability of MO-OH-Nap and IS in plasma samples were assessed at LQC, MQC, and HQC concentrations, n = 3, under the following storage conditions: bench-top storage (up to 6 h at room temperature, 21 ± 0.5 °C), three freeze–thaw cycles (−80 ± 0.5 °C to room temperature for 30 min, back to −80 ± 0.5 °C then stored for 24 h, the cycle was repeated twice more), long-term storage (12 months at −80 ± 0.5 °C), and 24 h auto-sampler stability of extracted samples (at 4 ± 0.5 °C).
# CD-1 mice = tested on: CD-1 mice; design: method as in PMID 30612055; conditions: up to 9.4 mg/kg intravenously three times weekly; cited from earlier work
# [4] = female, mouse, CD-1 mice, single IP 5 mg/kg, plasma
# [5] = autosampler 4 °C, up to 24 h, extracted samples, HQC 375 ng/mL
# [6] = autosampler 4 °C, up to 24 h, extracted samples, LQC 3 ng/mL
# [7] = autosampler 4 °C, up to 24 h, extracted samples, MQC 200 ng/mL
# [8] = bench-top 21 °C, up to 6 h, HQC 375 ng/mL
# [9] = bench-top 21 °C, up to 6 h, LQC 3 ng/mL
# [10] = bench-top 21 °C, up to 6 h, MQC 200 ng/mL
# [11] = freeze-thaw −80 °C, 3 cycles, HQC 375 ng/mL
# [12] = freeze-thaw −80 °C, 3 cycles, LQC 3 ng/mL
# [13] = freeze-thaw −80 °C, 3 cycles, MQC 200 ng/mL
# [14] = long-term −80 °C, 12 months, HQC 375 ng/mL
# [15] = long-term −80 °C, 12 months, LQC 3 ng/mL
# [16] = long-term −80 °C, 12 months, MQC 200 ng/mL
smiles,measurement,setting,value
"O=c1c(O)ccccc1-c1ccc2ccccc2c1 [MO-OH-Nap, MO-OH-Nap tropolone]",metabolic depletion,"[1]; NADPH, 60 min",< 15%
same,parent drug remaining,[1]; all time points to 60 min,> 95%
same,detectability in plasma,[2]; 48 h after single IP 5 mg/kg,detectable
same,Cmax,"[2]; CD-1 mice, single IP 5 mg/kg, plasma",3.0409 µg/mL
same,Vd/F,"[2]; CD-1 mice, single IP 5 mg/kg","43,727.1 mL/kg"
same,AUC,"[2]; female, CD-1, mouse, plasma, ip, CD-1 mice, single IP 5 mg/kg, plasma, read-out: AUC0_last",2.75 µg·h/mL
same,AUC,"[2]; female, CD-1, mouse, plasma, ip, CD-1 mice, single IP 5 mg/kg, plasma, read-out: AUC0_∞",2.86 µg·h/mL
same,Cmax,"[2]; female, CD-1, mouse, plasma, ip, CD-1 mice, single IP 5 mg/kg, plasma, read-out: Cmax",3.04 µg/mL
same,Vd/F,"[2]; female, CD-1, mouse, plasma, ip, CD-1 mice, single IP 5 mg/kg, read-out: Vd/F",43.3 L/kg
same,CL/F,"[2]; female, mouse, plasma, CD-1 mice, single IP 5 mg/kg",1.79 L/h/kg
same,Tmax,[2]; [4],0.3 h
same,half-life,[2]; [4],17.7 h
same,% Accuracy,[3]; [5],90.7 ± 5.3%
same,Measured Mean Conc.,[3]; [5],340.2 ± 20.1 ng/mL
same,% Accuracy,[3]; [6],101.9 ± 5.8%
same,Measured Mean Conc.,[3]; [6],3.1 ± 0.2 ng/mL
same,% Accuracy,[3]; [7],90.1 ± 0.6%
same,Measured Mean Conc.,[3]; [7],180.2 ± 1.10 ng/mL
same,% Accuracy,[3]; [8],101.5 ± 5.6%
same,Measured Mean Conc.,[3]; [8],380.5 ± 20.9 ng/mL
same,% Accuracy,[3]; [9],107.8 ± 14.8%
same,Measured Mean Conc.,[3]; [9],3.2 ± 0.5 ng/mL
same,% Accuracy,[3]; [10],95.8 ± 9.1%
same,Measured Mean Conc.,[3]; [10],191.6 ± 18.1 ng/mL
same,% Accuracy,[3]; [11],88.6 ± 4.7%
same,Measured Mean Conc.,[3]; [11],332.2 ± 17.6 ng/mL
same,% Accuracy,[3]; [12],100.5 ± 13.3%
same,Measured Mean Conc.,[3]; [12],3.0 ± 0.4 ng/mL
same,% Accuracy,[3]; [13],84.0 ± 0.9%
same,Measured Mean Conc.,[3]; [13],167.9 ± 1.8 ng/mL
same,% Accuracy,[3]; [14],92.7 ± 0.4%
same,Measured Mean Conc.,[3]; [14],347.4 ± 1.5 ng/mL
same,% Accuracy,[3]; [15],95.6 ± 2.4%
same,Measured Mean Conc.,[3]; [15],2.9 ± 0.1 ng/mL
same,% Accuracy,[3]; [16],99.8 ± 0.6%
same,Measured Mean Conc.,[3]; [16],199.5 ± 1.3 ng/mL
same,"tolerability (blood counts, renal and hepatic functions, body weight)",CD-1 mice,well-tolerated
